Assay results from BindingDB's records for doi:10.7270/Q2V40SP7 (The Scripps Research Institute Molecular Screening Center, 2011).

These compounds were tested against T1, Peroxisome proliferator-activated receptor gamma (Homo sapiens, UniProt P37231) (assay: competitive ligand displacement at PPARg – biochemical, TR-FRET, LanthaScreen, PPARg partial agonist project, dose response (AID 504446)).
T1 sequence (P37231 whole entry): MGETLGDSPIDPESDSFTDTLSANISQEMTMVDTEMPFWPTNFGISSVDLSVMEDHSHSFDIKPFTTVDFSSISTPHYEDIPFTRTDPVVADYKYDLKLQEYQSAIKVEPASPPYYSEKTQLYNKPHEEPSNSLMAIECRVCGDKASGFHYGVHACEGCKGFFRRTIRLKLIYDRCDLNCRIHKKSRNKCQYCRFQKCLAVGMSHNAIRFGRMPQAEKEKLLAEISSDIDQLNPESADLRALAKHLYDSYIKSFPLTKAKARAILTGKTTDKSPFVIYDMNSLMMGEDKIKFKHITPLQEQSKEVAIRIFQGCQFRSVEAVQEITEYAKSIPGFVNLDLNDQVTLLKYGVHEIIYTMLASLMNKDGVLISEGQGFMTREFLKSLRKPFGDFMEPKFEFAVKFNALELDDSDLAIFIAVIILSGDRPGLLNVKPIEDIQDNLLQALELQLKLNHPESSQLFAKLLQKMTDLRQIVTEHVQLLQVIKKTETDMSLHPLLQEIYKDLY

Row | IC50 | SMILES
1 | 2.6 µM | Cc1ccc2nc(N3C(=O)C(=O)C(C(=O)c4ccc(C)o4)C3c3ccco3)sc2c1 (centres undefined)
2 | 1.2 µM | COc1ccc2nc(N3C(=O)C(=O)C(C(=O)c4ccco4)C3c3ccc(C)o3)sc2c1 (centres undefined)
3 | 8.2 µM | CCOc1ccc2nc(N3C(=O)C(=O)C(C(=O)c4ccco4)C3c3ccco3)sc2c1 (centres undefined) [1-(6-ethoxy-1,3-benzothiazol-2-yl)-2-(2-furanyl)-3-[2-furanyl(oxo)methyl]-4-hydroxy-2H-pyrrol-5-one]
4 | 14 µM | Cc1ccc2nc(N3C(=O)C(=O)C(C(=O)c4ccco4)C3c3ccc(C)o3)sc2c1 (centres undefined) [3-[2-furanyl(oxo)methyl]-4-hydroxy-1-(6-methyl-1,3-benzothiazol-2-yl)-2-(5-methyl-2-furanyl)-2H-pyrrol-5-one;oxalic acid]
